Test [1] relates to control sera (pooled serum of ten healthy LUMC hospital workers; commercial negative donor pooled serum from the Dutch bloodbank). The format is binding, human.
For test [2], the system named is antibodies in sera from SARS patients (sera 1a, 1b, 2, 6, 37, 62, London, SARS-yellow, SARS-green). Type of test: binding, human.
Test [3] deals with rabbit serum obtained by immunizing a rabbit with the SARS-CoV strain Frankfurt 1. The format is binding. Also on record: Binding of a rabbit serum to linear peptides / Binding of a rabbit serum to looped peptides / Rabbit serum linear peptides / Rabbit serum looped peptides / Binding of a rabbit serum to linear peptides of protein N of SARS-CoV Urbani (Rabbit serum linear peptides) / Binding of a rabbit serum to looped/cyclic peptides of protein N of SARS-CoV Urbani (Rabbit serum looped peptides): unit not given here.

For VFLLVTLAILTALRL, in test [1], the “Binding of Control Serum Blood-Bank to Looped peptides” value stood at 0.4, the “Binding of Control serum Blood-bank to linear peptides” value was found to be 0.5, the “Binding of Control serum LUMC to linear peptides” value was determined as 0.3 and the “Binding of Control serum LUMC to looped peptides” value was 0.5. In test [2], the “Binding of serum 1a to linear peptides of protein E of SARS-CoV Urbani” value is listed as 0.7, the “Binding of serum 1a to looped/cyclic peptides of protein E of SARS-CoV Urbani” value is 0.4, the “Binding of serum 1b to linear peptides of protein E of SARS-CoV Urbani” value came to 0.4 and the “Binding of serum 1b to looped/cyclic peptides of protein E of SARS-CoV Urbani” value is 0.2. Besides, in test [2], the “Binding of serum 2 to linear peptides of protein E of SARS-CoV Urbani” value was found to be 0.4, the “Binding of serum 2 to looped/cyclic peptides of protein E of SARS-CoV Urbani” value was found to be 0.4, the “Binding of serum 6 to linear peptides of protein E of SARS-CoV Urbani” value was found to be 0.5 and the “Binding of serum 6 to looped/cyclic peptides of protein E of SARS-CoV Urbani” value stood at 0.2. In addition, in test [2], the “Binding of serum 37 to linear peptides of protein E of SARS-CoV Urbani” value is 0.6, the “Binding of serum 37 to looped/cyclic peptides of protein E of SARS-CoV Urbani” value worked out at 0.4, the “Binding of serum 62 to linear peptides of protein E of SARS-CoV Urbani” value stood at 0.6 and the “Binding of serum 62 to looped/cyclic peptides of protein E of SARS-CoV Urbani” value was 0.5. Besides, in test [2], the “Binding of serum London to linear peptides of protein E of SARS-CoV Urbani” value worked out at 0.5, the “Binding of serum London to looped/cyclic peptides of protein E of SARS-CoV Urbani” value was 0.3, the “Binding of serum SARS-green to linear peptides of protein E of SARS-CoV Urbani” value was determined as 0.4 and the “Binding of serum SARS-green to looped/cyclic peptides of protein E of SARS-CoV Urbani” value amounted to 0.2. Also, in test [2], the “Binding of serum SARS-yellow to linear peptides of protein E of SARS-CoV Urbani” value worked out at 0.0 and the “Binding of serum SARS-yellow to looped/cyclic peptides of protein E of SARS-CoV Urbani” value came to 0.5. Moreover, in test [3], the “Binding of a rabbit serum to linear peptides” value was determined as 0.4 and the “Binding of a rabbit serum to looped peptides” value was 0.3.
Take LLVTLAILTALRLCA: in test [1], the “Binding of Control Serum Blood-Bank to Looped peptides” value was determined as 0.8, the “Binding of Control serum Blood-bank to linear peptides” value came to 0.7, the “Binding of Control serum LUMC to linear peptides” value amounted to 0.3 and the “Binding of Control serum LUMC to looped peptides” value is 0.8. Besides, in test [2], the “Binding of serum 1a to linear peptides of protein E of SARS-CoV Urbani” value turned out to be 0.8, the “Binding of serum 1a to looped/cyclic peptides of protein E of SARS-CoV Urbani” value was 0.7, the “Binding of serum 1b to linear peptides of protein E of SARS-CoV Urbani” value is 0.4 and the “Binding of serum 1b to looped/cyclic peptides of protein E of SARS-CoV Urbani” value was determined as 0.1. Moreover, in test [2], the “Binding of serum 2 to linear peptides of protein E of SARS-CoV Urbani” value worked out at 0.5, the “Binding of serum 2 to looped/cyclic peptides of protein E of SARS-CoV Urbani” value amounted to 0.6, the “Binding of serum 6 to linear peptides of protein E of SARS-CoV Urbani” value is listed as 0.4 and the “Binding of serum 6 to looped/cyclic peptides of protein E of SARS-CoV Urbani” value turned out to be 0.4. Further, in test [2], the “Binding of serum 37 to linear peptides of protein E of SARS-CoV Urbani” value stood at 0.6, the “Binding of serum 37 to looped/cyclic peptides of protein E of SARS-CoV Urbani” value came out at 0.3, the “Binding of serum 62 to linear peptides of protein E of SARS-CoV Urbani” value was 0.6 and the “Binding of serum 62 to looped/cyclic peptides of protein E of SARS-CoV Urbani” value stood at 0.8. In addition, in test [2], the “Binding of serum London to linear peptides of protein E of SARS-CoV Urbani” value stood at 0.5, the “Binding of serum London to looped/cyclic peptides of protein E of SARS-CoV Urbani” value stood at 0.4, the “Binding of serum SARS-green to linear peptides of protein E of SARS-CoV Urbani” value was found to be 0.4 and the “Binding of serum SARS-green to looped/cyclic peptides of protein E of SARS-CoV Urbani” value was found to be 0.6. Further, in test [2], the “Binding of serum SARS-yellow to linear peptides of protein E of SARS-CoV Urbani” value was 0.0 and the “Binding of serum SARS-yellow to looped/cyclic peptides of protein E of SARS-CoV Urbani” value amounted to 0.3. Further, in test [3], the “Binding of a rabbit serum to linear peptides” value amounted to 0.5 and the “Binding of a rabbit serum to looped peptides” value was determined as 0.8.
With IVNSVLLFLAFVVFL, in test [1], the “Binding of Control Serum Blood-Bank to Looped peptides” value was 0.5, the “Binding of Control serum Blood-bank to linear peptides” value is 0.6, the “Binding of Control serum LUMC to linear peptides” value is 0.4 and the “Binding of Control serum LUMC to looped peptides” value turned out to be 0.7. In test [2], the “Binding of serum 1a to linear peptides of protein E of SARS-CoV Urbani” value came out at 0.8, the “Binding of serum 1a to looped/cyclic peptides of protein E of SARS-CoV Urbani” value is reported as 0.6, the “Binding of serum 1b to linear peptides of protein E of SARS-CoV Urbani” value was 0.6 and the “Binding of serum 1b to looped/cyclic peptides of protein E of SARS-CoV Urbani” value is listed as 0.4. Also, in test [2], the “Binding of serum 2 to linear peptides of protein E of SARS-CoV Urbani” value is on record as 0.4, the “Binding of serum 2 to looped/cyclic peptides of protein E of SARS-CoV Urbani” value is reported as 0.5, the “Binding of serum 6 to linear peptides of protein E of SARS-CoV Urbani” value is 0.7 and the “Binding of serum 6 to looped/cyclic peptides of protein E of SARS-CoV Urbani” value was determined as 0.3. Further, in test [2], the “Binding of serum 37 to linear peptides of protein E of SARS-CoV Urbani” value came to 0.7, the “Binding of serum 37 to looped/cyclic peptides of protein E of SARS-CoV Urbani” value came out at 0.6, the “Binding of serum 62 to linear peptides of protein E of SARS-CoV Urbani” value is given as 0.6 and the “Binding of serum 62 to looped/cyclic peptides of protein E of SARS-CoV Urbani” value was 0.6. Also, in test [2], the “Binding of serum London to linear peptides of protein E of SARS-CoV Urbani” value is 0.4, the “Binding of serum London to looped/cyclic peptides of protein E of SARS-CoV Urbani” value stood at 0.3, the “Binding of serum SARS-green to linear peptides of protein E of SARS-CoV Urbani” value worked out at 0.3 and the “Binding of serum SARS-green to looped/cyclic peptides of protein E of SARS-CoV Urbani” value worked out at 0.2. Also, in test [2], the “Binding of serum SARS-yellow to linear peptides of protein E of SARS-CoV Urbani” value is 0.2 and the “Binding of serum SARS-yellow to looped/cyclic peptides of protein E of SARS-CoV Urbani” value amounted to 0.7. In test [3], the “Binding of a rabbit serum to linear peptides” value is reported as 0.5 and the “Binding of a rabbit serum to looped peptides” value worked out at 0.5.
In the case of LTALRLCAYCCNIVN, in test [1], the “Binding of Control Serum Blood-Bank to Looped peptides” value is listed as 0.7, the “Binding of Control serum Blood-bank to linear peptides” value is 0.7, the “Binding of Control serum LUMC to linear peptides” value worked out at 0.5 and the “Binding of Control serum LUMC to looped peptides” value is listed as 0.6. Further, in test [2], the “Binding of serum 1a to linear peptides of protein E of SARS-CoV Urbani” value came to 0.9, the “Binding of serum 1a to looped/cyclic peptides of protein E of SARS-CoV Urbani” value was 0.6, the “Binding of serum 1b to linear peptides of protein E of SARS-CoV Urbani” value is 0.8 and the “Binding of serum 1b to looped/cyclic peptides of protein E of SARS-CoV Urbani” value is on record as 0.4. In addition, in test [2], the “Binding of serum 2 to linear peptides of protein E of SARS-CoV Urbani” value was found to be 0.4, the “Binding of serum 2 to looped/cyclic peptides of protein E of SARS-CoV Urbani” value is reported as 0.7, the “Binding of serum 6 to linear peptides of protein E of SARS-CoV Urbani” value is listed as 0.7 and the “Binding of serum 6 to looped/cyclic peptides of protein E of SARS-CoV Urbani” value is 0.5. In addition, in test [2], the “Binding of serum 37 to linear peptides of protein E of SARS-CoV Urbani” value is 0.8, the “Binding of serum 37 to looped/cyclic peptides of protein E of SARS-CoV Urbani” value worked out at 0.7, the “Binding of serum 62 to linear peptides of protein E of SARS-CoV Urbani” value was found to be 0.7 and the “Binding of serum 62 to looped/cyclic peptides of protein E of SARS-CoV Urbani” value was found to be 0.7. Besides, in test [2], the “Binding of serum London to linear peptides of protein E of SARS-CoV Urbani” value is on record as 0.5, the “Binding of serum London to looped/cyclic peptides of protein E of SARS-CoV Urbani” value is given as 0.3, the “Binding of serum SARS-green to linear peptides of protein E of SARS-CoV Urbani” value amounted to 0.3 and the “Binding of serum SARS-green to looped/cyclic peptides of protein E of SARS-CoV Urbani” value is listed as 0.3. In addition, in test [2], the “Binding of serum SARS-yellow to linear peptides of protein E of SARS-CoV Urbani” value came to 0.2 and the “Binding of serum SARS-yellow to looped/cyclic peptides of protein E of SARS-CoV Urbani” value was 0.4. In test [3], the “Binding of a rabbit serum to linear peptides” value was 0.6 and the “Binding of a rabbit serum to looped peptides” value worked out at 0.4.

(Values after patent publication US20070128217A1 (priority 2003, published 2007).)
